Test results as given in publication PMC3544269 (2012).

Experiments:
[1] = tested on: #3_7 (group 1) (DNA, aptamer) ATACCAGCTTATTCAATTGGTGGTAGGATGGGCTCGATCGAGGTCTTCAGTCGGCTCGGTTTAGTTTATGTTCTCCTGTAGATAGTAAGTGCAATCT; assay: fluorescent aptamer release from capture-oligo magnetic beads; conditions: 100 mM NaCl, 5 mM KCl, 2 mM MgCl2, 1 mM CaCl2; 20 mM Tris-HCl pH 7.6, 21 °C; capture oligo i-ODN2Sp; 1 mM compound; threshold 1 pmol eluted
[2] = tested on: #13_83 (group 3 representative) (DNA, aptamer) ATACCAGCTTATTCAATTGGGGAGATCTTGAGGCTCGATCGATAGTAGCTGTGACAGTCTACGTTTTATGGTATGCGGGTAGATAGTAAGTGCAATCT; assay: as above; conditions: 100 mM NaCl, 5 mM KCl, 2 mM MgCl2, 1 mM CaCl2; 20 mM Tris-HCl pH 7.6, 21 °C; capture oligo i-ODN2Sp; 1 mM compound; threshold 1 pmol eluted
[3] = tested on: #3_18 (group 7) (DNA, aptamer) ATACCAGCTTATTCAATTAGCATGGTGCTGAGGCTTGATCTGGAGGTCGTGAACGAAAATTGGTCGTTTAGTTGGCTCGTAGATAGTAAGTGCAATCT; assay: as above; conditions: 100 mM NaCl, 5 mM KCl, 2 mM MgCl2, 1 mM CaCl2; 20 mM Tris-HCl pH 7.6, 21 °C; capture oligo i-ODN2Sp; 1 mM compound; threshold 1 pmol eluted
[4] = tested on: #3_7 (group 1) (DNA, aptamer) ATACCAGCTTATTCAATTGGTGGTAGGATGGGCTCGATCGAGGTCTTCAGTCGGCTCGGTTTAGTTTATGTTCTCCTGTAGATAGTAAGTGCAATCT; assay: fluorescent aptamer release from capture-oligo magnetic beads, one-site fit; conditions: 100 mM NaCl, 5 mM KCl, 2 mM MgCl2, 1 mM CaCl2; 20 mM Tris-HCl pH 7.6, 21 °C; capture oligo i-ODN2Sp displaced; apparent; kanamycin A 0-1.5 mM

Question: With `CC(C)NCC(O)c1ccc(NS(C)(=O)=O)cc1` (stereo not drawn) as the compound, how does the binding [1] read?
Answer: The binding was “no”.

Question: What about the binding [2] of the same compound?
Answer: The binding was “no”.

Question: What about the binding [3] of the same compound?
Answer: Its binding is “no”.

Question: `Cc1cc(NS(=O)(=O)c2ccc(N)cc2)no1` was tested. Which binding [1] did it give?
Answer: Its binding is “no”.

Question: And the binding [2]?
Answer: The binding was “no”.

Question: And the binding [3]?
Answer: The binding was “no”.

Question: Which binding [1] does the source give for `NC(=O)NS(=O)(=O)c1ccc(N)cc1` here?
Answer: The binding was “no”.

Question: What about the binding [2] of the same compound?
Answer: Its binding is “no”.

Question: What about the binding [3] of the same compound?
Answer: Its binding is “no”.

Question: Which results are given for `NC[C@H]1O[C@H](O[C@H]2[C@H](O)[C@@H](O[C@H]3O[C@H](CO)[C@@H](O)[C@H](N)[C@H]3O)[C@H](N)C[C@@H]2N)[C@H](O)[C@@H](O)[C@@H]1O`?
Answer: KD [4]: 24 µM; binding [2]: no; binding [3]: yes
